Structures are written as SMILES. Where a name gives a salt, the structure may show the parent alone.

For the first assay, the target named is Btk enzyme (His-Btk) (Homo sapiens (Human), UniProt Q06187). Kind of assay: Btk enzyme activity, IMAP fluorescence polarization assay (Assay Method A).
Chain of Btk enzyme (His-Btk) (Q06187 whole entry): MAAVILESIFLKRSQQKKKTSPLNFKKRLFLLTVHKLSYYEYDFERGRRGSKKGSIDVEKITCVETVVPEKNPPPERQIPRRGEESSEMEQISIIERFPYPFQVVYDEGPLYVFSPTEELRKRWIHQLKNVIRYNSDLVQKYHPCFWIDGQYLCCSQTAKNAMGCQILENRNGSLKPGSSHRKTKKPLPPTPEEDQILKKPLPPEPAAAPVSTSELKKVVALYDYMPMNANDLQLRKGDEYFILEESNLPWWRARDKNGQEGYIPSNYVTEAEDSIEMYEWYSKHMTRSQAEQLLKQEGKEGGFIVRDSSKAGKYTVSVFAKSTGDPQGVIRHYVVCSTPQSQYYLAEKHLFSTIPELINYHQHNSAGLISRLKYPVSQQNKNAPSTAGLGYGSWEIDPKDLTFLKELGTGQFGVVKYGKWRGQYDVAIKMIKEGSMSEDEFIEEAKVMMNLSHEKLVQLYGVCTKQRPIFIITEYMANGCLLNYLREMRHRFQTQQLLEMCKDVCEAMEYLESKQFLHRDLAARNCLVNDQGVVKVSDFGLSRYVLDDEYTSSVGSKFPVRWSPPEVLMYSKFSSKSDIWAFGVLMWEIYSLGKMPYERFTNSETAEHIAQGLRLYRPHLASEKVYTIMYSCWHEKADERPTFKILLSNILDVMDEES
Conditions: not given
The molecule `COc1cc(-c2nc([C@H]3CC[C@H](O)CC3)n3ccnc(N)c23)ccc1C(=O)Nc1ccccn1` [Example 9, 4-(8-amino-3-((trans)-4-hydroxycyclohexyl)imidazo[1,5-a]pyrazin-1-yl)-2-methoxy-N-(pyridin-2-yl)benzamide] had an EC50 of 10 to 100 nM.
Consider `Nc1nccn2c1c(-c1ccc(C(=O)Nc3ccccn3)c(F)c1)nc2[C@H]1CC[C@H](O)CC1` [Example 12, 4-(8-amino-3-((trans)-4-hydroxycyclohexyl)imidazo[1,5-a]pyrazin-1-yl)-2-fluoro-N-(pyridin-2-yl)benzamide], for which the EC50 was 100 to 1000 nM.
Still for that read-out and setting: the value for `Nc1nccn2c1c(-c1ccc(C(=O)Nc3nc4c(s3)COCC4)cc1)nc2[C@H]1CC[C@H](O)CC1` [Example 15, 4-(8-amino-3-((trans)-4-hydroxycyclohexyl)imidazo[1,5-a]pyrazin-1-yl)-N-(6,7-dihydro-4H-pyrano[4,3-d]thiazol-2-yl)benzamide] was 10 to 100 nM; that for `Cc1cc(C(=O)Nc2ccccn2)ccc1-c1nc([C@H]2CC[C@H](O)CC2)n2ccnc(N)c12` [Example 16] was 100 to 1000 nM; that for `CN1CCc2nc(NC(=O)c3ccc(-c4nc([C@H]5CC[C@H](O)CC5)n5ccnc(N)c45)cc3)sc2C1` [Example 18, 4-(8-amino-3-((trans)-4-hydroxycyclohexyl)imidazo[1,5-a]pyrazin-1-yl)-N-(5-methyl-4,5,6,7-tetrahydrothiazolo[5,4-c]pyridin-2-yl)benzamide] was 100 to 1000 nM.
In turn, `Nc1nccn2c1c(-c1ccc(C(=O)Nc3cc(N4CCCC4)ccn3)cc1)nc2[C@H]1CC[C@H](O)CC1` [Example 21, 4-(8-amino-3-((trans)-4-hydroxycyclohexyl)imidazo[1,5-a]pyrazin-1-yl)-N-(4-(pyrrolidin-1-yl)pyridin-2-yl)benzamide] came in with an EC50 of 10 to 100 nM.
The molecule `Nc1nccn2c1c(-c1ccc(C(=O)Nc3ccccn3)c3ccccc13)nc2[C@H]1CC[C@H](O)CC1` [Example 22, 4-(8-amino-3-((trans)-4-hydroxycyclohexyl)imidazo[1,5-a]pyrazin-1-yl)-N-(pyridin-2-yl)-1-naphthamide] returned an EC50 of 100 to 1000 nM.
For the molecule `Nc1nccn2c1c(-c1ccc(C(=O)Nc3ccccn3)c(Cl)c1)nc2[C@H]1CC[C@H](O)CC1` [Example 23, 4-(8-amino-3-((trans)-4-hydroxycyclohexyl)imidazo[1,5-a]pyrazin-1-yl)-2-chloro-N-(pyridin-2-yl)benzamide], the EC50 lay within 10 to 100 nM.
Turning to `CCCc1ccnc(NC(=O)c2ccc(-c3nc(C4CCOCC4)n4ccnc(N)c34)cc2)c1` [Example 24, 4-(8-amino-3-(tetrahydro-2H-pyran-4-yl)imidazo [1,5-a]pyrazin-1-yl)-N-(4-propylpyridin-2-yl)benzamide], the EC50 is under 10 nM.
On to `N#Cc1ccnc(NC(=O)c2ccc(-c3nc(C4CCOCC4)n4ccnc(N)c34)cc2)c1` [Example 26, 4-(8-amino-3-(tetrahydro-2H-pyran-4-yl)imidazo [1,5-a]pyrazin-1-yl)-N-(4-cyanopyridin-2-yl)benzamide], for which the EC50 is 10 to 100 nM.
Still for that read-out and setting: the result for `Nc1nccn2c(C3CCOCC3)nc(-c3ccc(C(=O)Nc4ccccn4)cc3)c12` [Example 27, 4-(8-amino-3-(tetrahydro-2H-pyran-4-yl)imidazo[1,5-a]pyrazin-1-yl)-N-(pyridin-2-yl)benzamide] reads 10 to 100 nM; that for `CCc1cnc(NC(=O)c2ccc(-c3nc(C4CCOCC4)n4ccnc(N)c34)cc2)s1` [Example 28, 4-(8-amino-3-(tetrahydro-2H-pyran-4-yl)imidazo[1,5-a]pyrazin-1-yl)-N-(5-ethylthiazol-2-yl)benzamide], 10 to 100 nM; that for `Nc1nccn2c(C3CCOCC3)nc(-c3ccc(C(=O)Nc4nccs4)cc3)c12` [Example 29, 4-(8-amino-3-(tetrahydro-2H-pyran-4-yl)imidazo[1,5-a]pyrazin-1-yl)-N-(thiazol-2-yl)benzamide], 100 to 1000 nM.
Molecule `CC1CCc2nc(NC(=O)c3ccc(-c4nc([C@H]5[C@@H]6COC[C@@H]65)n5ccnc(N)c45)cc3)sc2C1` (stereo partly drawn) [Example 32, 4-(8-amino-3-((1R,5S,6S)-3-oxabicyclo[3.1.0]hexan-6-yl)imidazo[1,5-a]pyrazin-1-yl)-N-(6-methyl-4,5,6,7-tetrahydrobenzo[d]thiazol-2-yl)benzamide, TFA salt] displayed an EC50 of 10 to 100 nM.
Take `N#Cc1ccnc(NC(=O)c2ccc(-c3nc(C4CCOC4)n4ccnc(N)c34)cc2)c1` (stereo not shown) [Example 33, 4-(8-amino-3-(tetrahydrofuran-3-yl)imidazo[1,5-a]pyrazin-1-yl)-N-(4-cyanopyridin-2-yl)benzamide]: the EC50 is 10 to 100 nM.

Still in this assay, the particulars now being: read-out: EC50 Btk activity values - Assay Method A; IMAP-FP, 60 min pre-incubation, 5 μM ATP.
Turning to `Nc1nccn2c1c(-c1ccc(C(=O)Nc3nc4c(s3)CNCC4)cc1)nc2[C@H]1CC[C@H](O)CC1` [Example 17, 4-(8-amino-3-((trans)-4-hydroxycyclohexyl)imidazo[1,5-a]pyrazin-1-yl)-N-(4,5,6,7-tetrahydrothiazolo[5,4-c]pyridin-2-yl)benzamide], the EC50 was at least 1000 nM.

The same assay, now with this note: read-out: EC50 Btk activity values - Assay Method A; IMAP-FP, 60 min pre-incubation, 5 μM ATP; class 100-1000 is given as ≧100 nM-<1 μM.
For `CCCc1ccnc(NC(=O)c2ccc(-c3nc([C@H]4CC[C@H](O)CC4)n4ccnc(N)c34)cc2)c1` [Example 3, 4-(8-amino-3-((trans)-4-hydroxycyclohexyl)imidazo[1,5-a]pyrazin-1-yl)-N-(4-propylpyridin-2-yl)benzamide], the concentration giving a half-maximal response (EC50) was under 10 nM.
Take `CCc1cnc(NC(=O)c2ccc(-c3nc([C@H]4CC[C@H](O)CC4)n4ccnc(N)c34)cc2)s1` [Example 4, 4-(8-amino-3-((trans)-4-hydroxycyclohexyl)imidazo[1,5-a]pyrazin-1-yl)-N-(5-ethylthiazol-2-yl)benzamide]: the EC50 is under 10 nM.
As to `Cc1ccnc(NC(=O)c2ccc(-c3nc([C@H]4CC[C@H](O)CC4)n4ccnc(N)c34)cc2)c1` [Example 5, 4-(8-amino-3-((trans)-4-hydroxycyclohexyl)imidazo[1,5-a]pyrazin-1-yl)-N-(4-methylpyridin-2-yl)benzamide], the EC50 was under 10 nM.
On the same count and under the same terms, the value for `CC(C)c1ccnc(NC(=O)c2ccc(-c3nc([C@H]4CC[C@H](O)CC4)n4ccnc(N)c34)cc2)c1` [Example 6, 4-(8-amino-3-((trans)-4-hydroxycyclohexyl)imidazo[1,5-a]pyrazin-1-yl)-N-(4-isopropylpyridin-2-yl)benzamide] was under 10 nM; that for `Nc1nccn2c1c(-c1ccc(C(=O)Nc3cc(C4CC4)ccn3)cc1)nc2[C@H]1CC[C@H](O)CC1` [Example 7, 4-(8-amino-3-((trans)-4-hydroxycyclohexyl)imidazo[1,5-a]pyrazin-1-yl)-N-(4-cyclopropylpyridin-2-yl)benzamide] was under 10 nM.
Consider `Nc1nccn2c1c(-c1ccc(C(=O)Nc3nc4c(s3)CCCC4)cc1)nc2[C@H]1CC[C@H](O)CC1` [Example 8, 4-(8-amino-3-((trans)-4-hydroxycyclohexyl)imidazo[1,5-a]pyrazin-1-yl)-N-(4,5,6,7-tetrahydrobenzo[d]thiazol-2-yl)benzamide], for which the EC50 is under 10 nM.
With `CCCc1ccnc(NC(=O)c2ccc(-c3nc([C@H]4CC[C@H](O)CC4)n4ccnc(N)c34)c(C)c2)c1` [Example 10, 4-(8-amino-3-((trans)-4-hydroxycyclohexyl)imidazo[1,5-a]pyrazin)-3-methyl-N-(4-propylpyridin-2-yl)benzamide], the EC50 was under 10 nM.
As to `CCCc1ccnc(NC(=O)c2ccc(-c3nc([C@H]4CC[C@H](O)CC4)n4ccnc(N)c34)cc2OC)c1` [Example 11, 4-(8-amino-3-((trans)-4-hydroxycyclohexyl)imidazo[1,5-a]pyrazin-1-yl)-2-methoxy-N-(4-propylpyridin-2-yl)benzamide], the concentration for a half-maximal effect (EC50) is under 10 nM.
On to `CCCc1ccnc(NC(=O)c2ccc(-c3nc([C@H]4CC[C@H](O)CC4)n4ccnc(N)c34)cc2F)c1` [Example 13, 4-(8-amino-3-((trans)-4-hydroxycyclohexyl)imidazo[1,5-a]pyrazin-1-yl)-2-fluoro-N-(4-propylpyridin-2-yl)benzamide], for which the EC50 was under 10 nM.
`CC1CCc2nc(NC(=O)c3ccc(-c4nc([C@H]5CC[C@H](O)CC5)n5ccnc(N)c45)cc3)sc2C1` (stereo partly drawn) [Example 14, 4-(8-amino-3-((trans)-4-hydroxycyclohexyl)imidazo[1,5-a]pyrazin-1-yl)-N-(6-methyl-4,5,6,7-tetrahydrobenzo[d]thiazol-2-yl)benzamide]: the EC50 is under 10 nM.
As to `CCc1ccnc(NC(=O)c2ccc(-c3nc([C@H]4CC[C@H](O)CC4)n4ccnc(N)c34)cc2)c1` [Example 19, 4-(8-amino-3-((trans)-4-hydroxycyclohexyl)imidazo[1,5-a]pyrazin-1-yl)-N-(4-ethylpyridin-2-yl)benzamide], the EC50 is under 10 nM.
The same measure, in the same setting: the value for `Nc1nccn2c1c(-c1ccc(C(=O)Nc3cc(-c4ccccc4)ccn3)cc1)nc2[C@H]1CC[C@H](O)CC1` [Example 20, 4-(8-amino-3-((trans)-4-hydroxycyclohexyl)imidazo[1,5-a]pyrazin-1-yl)-N-(4-phenylpyridin-2-yl)benzamide] was under 10 nM; that for `Nc1nccn2c(C3CCOCC3)nc(-c3ccc(C(=O)Nc4cc(C(F)(F)F)ccn4)cc3)c12` [Example 25, 4-(8-amino-3-(tetrahydro-2H-pyran-4-yl)imidazo[1,5-a]pyrazin-1-yl)-N-(4-(trifluoromethyl)pyridin-2-yl)benzamide] was under 10 nM.
For `CCCc1ccnc(NC(=O)c2ccc(-c3nc([C@H]4[C@@H]5COC[C@@H]54)n4ccnc(N)c34)cc2)c1` [Example 30, 4-(8-amino-3-((1R,5S,6S)-3-oxabicyc1o[3.1.0]hexan-6-yl)imidazo[1,5-a]pyrazin-1-yl)-N-(4-propylpyridin-2-yl)benzamide, TFA salt], the EC50 was under 10 nM.
On to `Nc1nccn2c([C@H]3[C@@H]4COC[C@@H]43)nc(-c3ccc(C(=O)Nc4cc(C(F)(F)F)ccn4)cc3)c12` [Example 31, 4-(8-amino-34(1R,5S,6S)-3-oxabicyclo[3.1.0]hexan-6-yl)imidazo[1,5-a]pyrazin-1-yl)-N-(4-(trifluoromethyl)pyridin-2-yl)benzamide, TFA salt], for which the EC50 is under 10 nM.

The values above are taken from US9718828B2 (MERCK SHARP & DOHME CORP., priority 2011, dated 2017).
